Data on 19 molecules can be found in patent US20230348852A1, “METHODS AND COMPOSITIONS FOR OCULAR CELL THERAPY” (NOVARTIS AG, priority 2020, published 2023).

The test system of one data set is human limbal stem cells. As to the kind of experiment: Human limbal stem cell population expansion and measurement (expansion factor, p63alpha-positive cells). The data set is classed as cell-based. Conditions: 10 micromolar in XVIVO15 medium, two passages; for Expansion factor: ratio of expanded population to seeded cells; for Percentage of p63a-positive cells: share of Sytox Orange-positive nuclei expressing p63alpha. The protocol:
Cells were cultured at 37° C. in 5% CO2.
For each compound, two sets of cultures were generated. A first set of cultures was fixed in 4% PFA for 20 minutes at room temperature after cells isolated from the cornea had attached to the cell culture dish (typically 24 h after cell plating). A second set of cultures was fixed in 4% PFA for 20 minutes at room temperature after being cultured for two passages. Cells were passaged when they reached 90-100% confluence.
In order to observe that the expanded cell population expressed p63alpha, this was measured by immunohistochemistry as follows. The fixed cell cultures were permeabilized and blocked in a blocking solution of 0.3% Triton X-100 (Sigma-Aldrich) and 3% donkey serum in PBS for 30 minutes. Cells were then labeled with primary antibody in the blocking solution for 12 hours at 4° C. Primary antibody used was p63alpha from Cell Signalling. Samples were washed in PBS three times and donkey-raised secondary antibody Alexa Fluor 488 (Molecular Probes) at 1:500 dilution were applied for 30 minutes at room temperature. Cell nuclei were then labeled in a solution of 0.5 micromolar of Sytox Orange (ThermoFisher) in PBS for 5 minutes at room temperature.
To evaluate the percentage of p63alpha-positive cells, the number of cells labeled by the anti-p63alpha antibody was counted and the total number of cells was determined by counting the number of nuclei stained by Sytox Orange. The proportion of p63alpha-positive cells was then determined by calculating the percentage of Sytox-orange-positive nuclei that also expressed p63alpha.
To evaluate cell expansion ratios, nuclei were counted using a Zeiss LSM 880 confocal microscope. The expansion factor was then determined by calculating the ratio of the expanded population of cells to population of seeded cells.

A further data set concerns human B2M. As to the kind of experiment: CRISPR/Cas9-mediated deletion of B2M in HEK293 (lipofection, FACS). In kind it is cell-based. The conditions noted are these: lipofection of tracrRNA, gRNA and Cas9 mRNA; FACS after 72 h. The method, then: One day before transfection, 500′000 HEK293cells (ATCC, Manassas, VA) were plated in a 35 mm dish and grown in DMEM/10%FBS. The following day, cells were transfected with a mixture of tracrRNA-gRNA-Cas9 mRNA. A stock of 10 micromolar was prepared resuspending 20 nanomoles of gRNA and 20 nanomoles tracrRNA in 2000 microlitre 10 millimolar Tris buffer pH7.4 each.
The mixture was added drop wise to the culture dish in 2.5 ml DMEM/10%FBS medium. The transfection reagent alone represented the transfection negative control.
After 6 h incubation in 5% CO2 at 37° C. medium was replaced with fresh DMEM/10%FBS medium. After 72 h in a 5% CO2 incubator cells were prepared for FACS analysis. FACS analysis: HEK293 cells were treated with Accutase (ThermoFisher, Cat # A1110501) for 20 minutes in 5% CO2 at 37° C. The reaction was stopped by using cell culture medium containing 10% Serum and transferred to a falcon tube for a centrifugation step (1000 rpm, 5 minutes). After aspirating the medium cells were resuspended in 200 microlitre FACS buffer (PBS/10%FBS).
To analyze the expression of B2M and HLA-ABC, 5 microlitre APC mouse anti-human β2-microglobulin antibody (Biolegend, Cat #316312) and 20 microlitre PE mouse anti-human HLA-ABC antibody (BD Bioscience, Cat # 560168) were added to the cell suspension and incubated for 30 minutes on ice. Cells were washed 3 times after antibody labelling with FACS buffer and resuspended in 500 microlitre in FACS buffer.
Each sample was transferred to one well of a round bottom 96 well plate and analyzed on a BD LSRFortessa X-20 device. FACS data were analyzed using BD FACSDiva software.

Another data set deals with B2M. Nature of the data set: sgRNA screening for B2M knockout in LSCs (nucleofection, FACS). Conditions: Cas9 protein SEQ ID NO: 106, LSCs at passage 3, FACS after around 3 days. The data set is classed as cell-based, human. The protocol: Cells were cultured under these conditions for 24-48 hours at 37° C. in 5% CO2.
LSCs were nuclofected with selected gRNAs (Table 6) followed by FACS analysis / MACS separation.
After scraping the cells, the reaction was stopped by using cell culture medium containing 10% Serum and transferred to a falcon tube. After counting cells using Vi-cell 300′000 cells were prepared per reaction by transferring 300′000 cells in single tubes and centrifuged at 1000 rpm for 5 min. The supernatant was aspirated using manually pipetting to avoid cell loss and the cells were resuspended in the Stem cell nucleofector solution II (Lonza, Cat #VPH-5022). Resuspend cells in nucleofector solution immediately before adding the Cas9 RNP:sgRNA mixture. To obtain the nucleofection mixture, 5 µg high concentrated (≥5 µg/µl) Cas9 protein of SEQ ID NO: 106 (volume = 0.78 µl) was mixed with 19.5 µg sgRNA of Table 6 (volume = 12.2 µl) and incubated for 20 min at room temperature. […] The Cas9 protein-guideRNA complex was added to the cell suspension and transferred to the electroporation cuvette immediately. Cells were transfected using the nucelofector device (Lonza, Amaxa Nucleofector II) and program A023. After nucleofection cells were transferred from cuvette to one well of a 24 well synthemax coated plate containing pre-warmed LSC medium including 3 µM LATS compound and 10 µM Rock inhibitor Y-27632 (Nature 1997, vol. 389, pp. 990-994). Incubate LSCs in a 5% CO2 incubator for around 3 days until cells are 90% confluent.
LSCs were treated with TryLE®Express Enzym (ThermoFisher, Cat #12605010) for 15 minutes in 5% CO2 at 37° C. After scraping the cells, the reaction was stopped by using cell culture medium containing 10% Serum and transferred to a falcon tube for a centrifugation step (1000 rpm, 5 minutes). After aspirating the medium cells were resuspended in 200 µl FACS buffer (PBS/10%FBS).
To analyze the expression of B2M and HLA-ABC, 5 µl APC mouse anti-human β2-microglobulin antibody (Biolegend, Cat#316312) and 20 µl PE mouse anti-human HLA-ABC antibody (BD Bioscience, Cat # 560168) were added to the cell suspension and incubated for 30 minutes on ice.
Cells were washed 3 times after antibody labelling with FACS buffer and resuspended in 200 µl in FACS buffer (depending on the cell number).
FACS data were analyzed using BD FACSDiva software and FlowJo software.

Turning to `CC(C)(Nc1nc(-c2ccncc2Cl)nc2cnccc12)C(F)(F)F` [2-(3-chloropyridin-4-yl)-N-(1,1,1-trifluoro-2-methylpropan-2-yl)pyrido[3,4-d]pyrimidin-4-amine], in the data set on human limbal stem cells, the Expansion factor came out at 961 and the “Percentage of p63a-positive cells” value is given as 87%.
As for `FC(F)(F)C1CN(c2nc(-c3ccncc3)nc3cnccc23)CCN1` (stereo not shown) [2-(pyridin-4-yl)-4-(3-(trifluoromethyl)piperazin-1-yl)pyrido[3,4-d]pyrimidine], in the data set with human limbal stem cells, the Expansion factor stood at 1051 and the “Percentage of p63a-positive cells” value is 90%.
For `FC(F)(F)C1(Nc2nc(-c3ccncc3)nc3cnccc23)CCC1` [2-(pyridin-4-yl)-N-[1-(trifluoromethyl)cyclobutyl]pyrido[3,4-d]pyrimidin-4-amine], in the data set with human limbal stem cells, the Expansion factor came to 1712 and the “Percentage of p63a-positive cells” value was 95%.
On the same counts, the results for `CC(C)(CO)Nc1nc(-c2ccncc2)nc2cnccc12` [2-methyl-2-{[2-(pyridin-4-yl)pyrido[3,4-d]pyrimidin-4-yl]amino}propan-1-ol] are 1160 and 89%.
In the case of `FC(F)(F)C1(Nc2nc(-c3ccncc3)cc3cnccc23)CC1` [3-(pyridin-4-yl)-N-(1-(trifluoromethyl)cyclopropyl)-2,6-naphthyridin-1-amine], in the data set on human limbal stem cells, the Expansion factor is 1241 and the “Percentage of p63a-positive cells” value amounted to 95%.
Regarding `O[C@H]1CCC[C@@H]1Nc1nc(-c2ccncc2)nc2cnccc12` [(1S,2S)-2-{[2-(pyridin-4-yl)pyrido[3,4-d]pyrimidin-4-yl]amino}cyclopentan-1-ol], in the data set with human limbal stem cells, the Expansion factor came out at 39 and the “Percentage of p63a-positive cells” value was found to be 6%.
On to `CC(C)(C)Nc1cc(-c2ccncc2)nc2cnccc12` [Example 2, N-(tert-butyl)-2-(pyridin-4-yl)-1,7-naphthyridin-4-amine], for which, in the data set on human limbal stem cells, the Expansion factor was found to be 1717 and the “Percentage of p63a-positive cells” value worked out at 93%.
On the same counts, the results for `CC1(Nc2cc(-c3ccncc3)cc3cnccc23)CC1` [N-(1-methylcyclopropyl)-7-(pyridin-4-yl)isoquinolin-5-amine] are 681 and 80%.
For `CC1CCCC1Nc1nc(-c2ccncc2)nc2cnccc12` (stereo not shown) [N-(2-methylcyclopentyl)-2-(pyridin-4-yl)pyrido[3,4-d]pyrimidin-4-amine], in the data set on human limbal stem cells, the Expansion factor worked out at 976 and the “Percentage of p63a-positive cells” value came to 86%.
As to `CC(C)Nc1nc(-c2ccncc2)nc2cnccc12` [N-(propan-2-yl)-2-(pyridin-4-yl)pyrido[3,4-d]pyrimidin-4-amine], in the data set on human limbal stem cells, the Expansion factor is given as 1275 and the “Percentage of p63a-positive cells” value was determined as 93%.
Take `c1cc(-c2nc(NC3CCCC3)c3ccncc3n2)ccn1` [N-cyclopentyl-2-(pyridin-4-yl)pyrido[3,4-d]pyrimidin-4-amine]: in the data set with human limbal stem cells, the Expansion factor worked out at 1048 and the “Percentage of p63a-positive cells” value was 87%.
For `CCCNc1nc(-c2c[nH]nc2C(F)(F)F)nc2cnccc12` [N-propyl-2-(3-(trifluoromethyl)-1H-pyrazol-4-yl)pyrido[3,4-d]pyrimidin-4-amine], in that order: 991 and 86%.
For `CCCNc1nc(-c2ccncc2)nc2cnccc12` [N-propyl-2-(pyridin-4-yl)pyrido[3,4-d]pyrimidin-4-amine], in that order: 1423 and 93%.

B1: 5-CR004366: gRNA targeting human B2M; targeting domain SEQ ID NO: 112; sgRNA SEQ ID NO: 163; from Dharmacon (nucleic acid)
guide: CUGAAUCUUUGGAGUACCUGGUUUUAGAGCUAGAAAUAGCAAGUUAAAAUAAGGCUAGUCCGUUAUCAACUUGAAAAAGUGGCACCGAGUCGGUGCUUUU
modifications: listed as RNA, chemistry not given here
notes: gRNA targeting human B2M; from Dharmacon
With B1, the “B2M knockout efficiency in HEK293” value in the data set on human B2M stood at 33%. Further, the “B2M knockout efficiency in LSCs after nucleofection” value (shortened to “B2M knockout efficiency in LSCs”) in the data set with B2M was determined as 2%.

B2: 3-CR004366: gRNA targeting human B2M; targeting domain SEQ ID NO: 110; sgRNA SEQ ID NO: 161; from Dharmacon (nucleic acid)
guide: AAGUCAACUUCAAUGUCGGAGUUUUAGAGCUAGAAAUAGCAAGUUAAAAUAAGGCUAGUCCGUUAUCAACUUGAAAAAGUGGCACCGAGUCGGUGCUUUU
modifications: listed as RNA, chemistry not given here
notes: as for B1
For the molecule B2, the “B2M knockout efficiency in HEK293” value in the data set with human B2M is 12%. Also, the “B2M knockout efficiency in LSCs” value with B2M is 2%.

B3: CR006979: gRNA targeting human B2M; targeting domain SEQ ID NO: 140; sgRNA SEQ ID NO: 177 (nucleic acid)
guide: UCCUGAAUUGCUAUGUGUCUGUUUUAGAGCUAGAAAUAGCAAGUUAAAAUAAGGCUAGUCCGUUAUCAACUUGAAAAAGUGGCACCGAGUCGGUGCUUUU
modifications: listed as RNA, chemistry not given here
On to B3, for which the “B2M knockout efficiency in LSCs” value in the data set with B2M came to 2%.

B4: 2-CR004366: gRNA targeting human B2M; targeting domain SEQ ID NO: 109; sgRNA SEQ ID NO: 160; from Dharmacon (nucleic acid)
guide: CGUGAGUAAACCUGAAUCUUGUUUUAGAGCUAGAAAUAGCAAGUUAAAAUAAGGCUAGUCCGUUAUCAACUUGAAAAAGUGGCACCGAGUCGGUGCUUUU
modifications: listed as RNA, chemistry not given here
notes: as for B1
Regarding B4, the “B2M knockout efficiency in HEK293” value with human B2M is recorded as 33%. Besides, in the data set with B2M, the “B2M knockout efficiency in LSCs” value came out at 2%.

B5: 10-HEYJA000007: gRNA targeting human B2M; targeting domain SEQ ID NO: 117; sgRNA SEQ ID NO: 168 (nucleic acid)
guide: AGUCACAUGGUUCACACGGCGUUUUAGAGCUAGAAAUAGCAAGUUAAAAUAAGGCUAGUCCGUUAUCAACUUGAAAAAGUGGCACCGAGUCGGUGCUUUU
modifications: listed as RNA, chemistry not given here
B5: the “B2M knockout efficiency in HEK293” value in the data set with human B2M was 13%. Also, the “B2M knockout efficiency in LSCs” value in the data set with B2M is 1%.

B6: 11-HEYJA000008: gRNA targeting human B2M; targeting domain SEQ ID NO: 118; sgRNA SEQ ID NO: 169 (nucleic acid)
guide: CCACCUCUUGAUGGGGCUAGGUUUUAGAGCUAGAAAUAGCAAGUUAAAAUAAGGCUAGUCCGUUAUCAACUUGAAAAAGUGGCACCGAGUCGGUGCUUUU
modifications: listed as RNA, chemistry not given here
In the case of B6, in the data set on human B2M, the “B2M knockout efficiency in HEK293” value worked out at 3%. For the same molecule, the “B2M knockout efficiency in LSCs” value with B2M is given as 1%.
